Reference: patent publication US9447040B2, “Tricyclic compounds, compositions comprising them and uses thereof” (YISSUM RESEARCH DEVELOPMENT COMPANY OF THE HEBREW …, priority 2011, dated 2016)
“And” between values parts separate entries of the source, which are not always exact repeats. Equal entries are not always repeated. “Also recorded” adds a separate entry of the source.

Assays:
[1] = tested on: nap WAT; experiment: Intra-nap fat-pad injection to Psammomys on high-fat diet, nap WAT; format: in vivo
Protocol: Ten 2-month old female pasmmomys were subjected to high-fat diet for 5 weeks prior to commencement of experiment.
0.1 ml vehicle (2.3% sodium decanoate (C10, Sigma, C4151), 2.3% sodium dodecanoate (C12, Sigma, L9755), 10% Solutol HS 15 (BASF, cat#06466701), 40% Propylene-Glycol (Sigma, P4347) and 45% Triacetin (Aldrich, cat#525073))
0.1 ml MTK-012 (concentration of 4 mg/ml in above vehicle).
0.1 ml MTK-013 (concentration of 4 mg/ml in above vehicle).
Intra nap fat-pad injections of each composition were administered to animals in each treatment groups (3, 3, and 4 animals in each treatment group respectively), twice a week for 2 weeks, while on high-fat diet. All animals were sacrificed after 4 days from last injection.
Table 1 below provides the results of nap WAT weight after 4 days from treatment.

[2] = target: protein kinase CDC42-binding-protein-kinase-alpha (CDC42BPA or MRCKA) (Homo sapiens, UniProt Q5VT25); experiment: screening against 191 different protein kinases; format: biochemical; details: screened against 191 different protein kinases
protein kinase CDC42-binding-protein-kinase-alpha (CDC42BPA or MRCKA), sequence (Q5VT25 whole entry): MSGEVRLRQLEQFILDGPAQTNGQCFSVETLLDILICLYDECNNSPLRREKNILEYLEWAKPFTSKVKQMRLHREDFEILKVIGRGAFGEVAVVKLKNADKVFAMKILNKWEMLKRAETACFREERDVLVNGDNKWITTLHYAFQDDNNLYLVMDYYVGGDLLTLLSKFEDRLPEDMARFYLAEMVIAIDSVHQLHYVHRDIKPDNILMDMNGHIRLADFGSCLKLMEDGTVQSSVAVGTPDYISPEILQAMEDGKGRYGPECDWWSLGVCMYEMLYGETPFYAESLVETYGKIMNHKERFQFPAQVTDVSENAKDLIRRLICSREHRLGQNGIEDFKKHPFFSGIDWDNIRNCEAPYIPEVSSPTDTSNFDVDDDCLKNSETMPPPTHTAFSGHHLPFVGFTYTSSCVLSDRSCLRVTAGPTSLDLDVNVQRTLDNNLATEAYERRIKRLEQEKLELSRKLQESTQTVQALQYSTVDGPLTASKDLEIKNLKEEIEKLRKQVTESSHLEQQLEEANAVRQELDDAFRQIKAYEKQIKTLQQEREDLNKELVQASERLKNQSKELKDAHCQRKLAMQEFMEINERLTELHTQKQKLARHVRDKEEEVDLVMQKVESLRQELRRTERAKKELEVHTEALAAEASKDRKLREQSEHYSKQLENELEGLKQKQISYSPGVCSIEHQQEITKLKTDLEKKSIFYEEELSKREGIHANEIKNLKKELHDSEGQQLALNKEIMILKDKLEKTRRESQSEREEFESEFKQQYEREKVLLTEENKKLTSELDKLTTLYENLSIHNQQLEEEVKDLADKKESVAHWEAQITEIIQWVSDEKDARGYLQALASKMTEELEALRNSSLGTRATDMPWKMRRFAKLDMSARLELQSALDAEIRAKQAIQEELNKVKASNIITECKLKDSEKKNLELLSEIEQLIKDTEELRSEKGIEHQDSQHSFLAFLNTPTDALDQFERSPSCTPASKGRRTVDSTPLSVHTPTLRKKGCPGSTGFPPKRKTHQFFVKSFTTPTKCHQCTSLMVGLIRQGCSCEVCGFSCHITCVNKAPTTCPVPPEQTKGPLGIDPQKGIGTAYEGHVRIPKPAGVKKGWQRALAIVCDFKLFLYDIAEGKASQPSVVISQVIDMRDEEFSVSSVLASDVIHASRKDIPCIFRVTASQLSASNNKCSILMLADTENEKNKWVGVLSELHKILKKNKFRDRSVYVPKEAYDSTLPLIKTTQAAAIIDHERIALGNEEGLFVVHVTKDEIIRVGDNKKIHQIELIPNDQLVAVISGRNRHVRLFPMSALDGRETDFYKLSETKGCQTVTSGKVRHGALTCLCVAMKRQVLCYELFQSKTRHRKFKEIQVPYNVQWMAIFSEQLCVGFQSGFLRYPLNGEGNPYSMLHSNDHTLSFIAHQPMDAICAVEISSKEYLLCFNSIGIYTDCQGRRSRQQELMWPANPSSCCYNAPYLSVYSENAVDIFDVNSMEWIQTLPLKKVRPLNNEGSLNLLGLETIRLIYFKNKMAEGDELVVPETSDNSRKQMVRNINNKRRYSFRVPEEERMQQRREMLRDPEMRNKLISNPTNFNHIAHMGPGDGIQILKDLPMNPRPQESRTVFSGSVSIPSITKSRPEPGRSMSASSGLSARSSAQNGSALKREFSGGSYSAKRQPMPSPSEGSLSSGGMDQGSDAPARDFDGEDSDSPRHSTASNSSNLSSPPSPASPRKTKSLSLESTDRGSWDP

[3] = tested on: abdominal adipose tissue; experiment: Intraperitoneal (i.p.) injection to mice, gross pathology and abdominal fat; format: in vivo
Protocol: 42 wks old male mice (35-42 g body wt.) were i.p. injected with either vehicle (=Control, 10 mice) or with MTK-012 dissolved in that vehicle (10 mice).
Vehicle composition: aqueous solution of 4% Tween20 (Sigma, P7949) and 20% Propylene-Glycol (Sigma, P4347).
MTK-012 was dissolved in vehicle composition at a final concentration of 5 mg/ml.
The mice were initially (t=0) injected a dose of 20 mg/kg, or the equivalent volume of vehicle to the controls (solid arrow in FIG. 1). Three weeks later the mice were injected a double dose of 40 mg/kg of MTK-012 or 40 mg/kg of vehicle (broken arrow in FIG. 1).
Body weight was measured once a week; the results are shown in FIG. 1 and expressed as the % change in body weight relative to the body weight on day 0.
At t=6 wks the animals were sacrificed and dissected for gross pathology.

[4] = tested on: s.c. adipose tissue; experiment: Single subcutaneous (s.c.) injection to rats, s.c. fat; format: in vivo, SD male rats; details: single s.c. 25 mg/kg at 5 sites on left side, examined after 3 weeks
Protocol: SD male rats of about 400 g body weight were s.c. injected once (t=0) following light anesthesia with Ketamine-Xylazine.
MTK-012, at a final concentration of 10 mg/ml, was dissolved in a vehicle containing: 2.3% sodium decanoate (C10, Sigma, C4151), 2.3% sodium dodecanoate (C12, Sigma, L9755), 10% Solutol HS 15 (BASF, cat#06466701), 40% Propylene-Glycol (Sigma, P4347) and 45% Triacetin (Aldrich, cat#525073).
The injection of 1 ml MTK-012 (=25 mg/kg) was performed as follows: the left side of the rats body was shaved and s.c. injections, 0.2 ml each, were administered at 5 sites, equally distributed along the left side of the rats. The rats were sacrificed after 3 weeks and inner part of their skin was examined. It is evident that the s.c. adipose tissue was reduced (visibly shown) in the treated rats (FIGS. 3B and 3D), as manifested by the exposure of the underneath blood vessels, as compared with the same anatomical area in FIGS. 3A and 3C. It should be noted that although the injection was performed unilaterally, the effect expand to the entire subcutis.

C[N+](C)(C)CCCCCn1c2ccc(Br)cc2c2cc(Br)ccc21.[Cl-] [MTK-012, 5-(3,6-dibromo-9H-carbazol-9-yl)-N,N,N-trimethylpentan-1-aminium chloride]
Nap WAT (g), single animals ([1]; 0.1 ml of 4 mg/ml intra nap fat-pad, twice a week for 2 weeks, 4 days after last injection): 3.7 g and 4.1 g and 4.6 g and 3.0 g
Nap WAT Average (g) ± SEM ([1]; 0.1 ml of 4 mg/ml intra nap fat-pad, twice a week for 2 weeks, 4 days after last injection, vehicle 5.30 ± 0.21): 3.85 ± 0.34 g
reduction in WAT as compared with vehicle ([1]; nap WAT weight 4 days after treatment): significant reduction
inhibition of protein kinase CDC42BPA (MRCKA) in screen [2]: significantly selective inhibition
general condition of treated animals ([3]; 42 wks old male mice, i.p. 20 mg/kg at t=0 and 40 mg/kg three weeks later): well and active, similar to the controls
abdominal adipose tissue / abdominal fat-mass ([3]; mice at t=6 wks, i.p. 20 mg/kg then 40 mg/kg, vs vehicle control): reduction in abdominal fat-mass; also recorded: ablation of the abdominal adipose tissue
gross pathology, changes other than adipose tissue ([3]; mice sacrificed at t=6 wks, i.p. 20 mg/kg then 40 mg/kg): No apparent change
s.c. adipose tissue (subcutaneous fat) [4]: reduction in subcutaneous fat; also recorded: reduced
